From patent publication US20240262818A1, “Selenium Maleimide Compounds And Uses Thereof” (THE UNIVERSITY OF NORTH CAROLINA AT CHAPEL HILL, priority 2021, published 2024)

Experiments:
[1] = type: physicochemical
Protocol: Synthesis of Compound 1: Selenium (31.0 mg, 0.39 mmol, 1.00 equiv.) was suspended in an aqueous solution of 1M NaOH (6 mL) under Ar atmosphere. To the solution, Rongalite (i.e., sodium hydroxymethanesulfinate, Na^+HOCH2SO2^−) (120.0 mg, 0.78 mmol, 2.00 equiv.) was added and stirred vigorously. Then, the reaction solution was heated to 80° C. using an oil bath. After reacting for 0.5 h, hepta-4,6-diynoic acid (44.0 mg, 0.36 mmol, 0.92 equiv.) in ethanol (4 mL) was added and the reaction mixture was reacted at 80° C. for an additional 5 h. The reaction was allowed to cool to room temperature and diluted with a saturated NH4Cl aqueous solution (10 mL). The solution was transferred to separatory funnel and extracted with EtOAc (20 mL×3). The combined organic layer was washed with brine (50 mL) and dried over MgSO4, filtered, concentrated, and purified by flash chromatography (20:1 hexanes:ethyl acetate to 10:1 to 5:1 to 2:1 to 1:1) to yield selenium compound 1 in 45% yield (36 mg). Isotopically pure compounds were also prepared by following the above described procedure.

[2] = tested on: viable peripheral blood mononuclear cells (PBMC); assay: Cell viability after SeMal incubation; type: cell-based; conditions: at working concentrations
Protocol: (§1) 3×10^6 viable, paraformaldehyde-fixed, or fixed and permeabilized peripheral blood mononuclear cells (PBMC) were incubated for 15 min with the indicated concentration of SeMal reagent in 0.2 ml PBS. Binding reactions were stopped by the addition of 5-fold excess volume of Cell Staining Buffer (Fluidigm) followed by incubation with Iridium using standard protocols. Data representations are from gated viable single cells. Cell viability […] incubation (for the viable cell condition) was >98%.

[3] = tested on: peripheral blood mononuclear cells (PBMC); assay: Labeling of PBMC with SeMal reagents, mass cytometry; type: cell-based; conditions: viable, fixed and fixed and permeabilized PBMC
Protocol: as §1

Structure (SMILES) | stability on storage [1] | toxicity when labeling viable cells [2] | labeling of PBMC [3]
O=C(O)CCc1ccc[se]1 [Compound 1] | sufficient stability |  | 
O=C(CCc1ccc[se]1)NCCN1C(=O)C=CC1=O [Compound 2] |  | non-toxic | effectively label
